Experimental data reported in patent publication US9717719B2, “Treatment, prevention, and reversal of alcohol-induced liver disease” (Rhode Island Hospital, priority 2006, dated 2017).
“Also recorded” adds a separate entry of the source.

Experiments:
Format in all cases: in vivo, rat
[1] = test system: AAH and GAPDH; test: ELISA of AAH and GAPDH immunoreactivity in liver
Excerpt: (§1) Chow fed control rats were also studied. Rats were monitored daily to ensure equivalent food consumption and maintenance of body weight. […] At the conclusion of the experiment, rats were anesthetized with vaporized isofluorane (SurgiVet, Inc. Waukesha, Wis.), and liver and blood were harvested for analysis. Liver tissue samples were immersion fixed in Histochoice (Amresco Corp., Solon, Ohio) and embedded in paraffin. Adjacent histological sections were stained with Hematoxylin and Eosin or Gomori's Trichrome and examined under code. In addition, liver tissue samples were snap-frozen in a dry ice methanol bath and then stored at −80° C. for later mRNA and protein studies. Throughout the experiment, rats were housed under humane conditions and kept on a 12-hour light/dark cycle with free access to food. All experiments were performed in accordance with protocols that conform to guidelines established by the National Institutes of Health and were approved by Institutional Animal Care and Use Committee at the Lifespan-Rhode Island Hospital.
ELISAs were used to measure immunoreactivity corresponding to AAH, GAPDH and β-actin (negative control). ELISAs were performed in 96-well opaque polystyrene plates (Nalge Nunc International, Rochester, N.Y.). RIPA protein extracts diluted in TBS (40 ng/100 μl) were adsorbed to the bottoms of the wells by overnight incubation at 4° C. After rinsing in TBS, the wells were blocked for 4 hours with 250 μl/well of 2% BSA in TBS. The proteins were then incubated with primary antibody (0.01-0.1 μg/ml) for 1 hour at room temperature. Immunoreactivity was detected with HRP-conjugated secondary antibody (1:10000; Pierce) and the Amplex Red soluble fluorophore (Molecular Probes). […] Binding specificity was determined from parallel negative control incubations with non-relevant antibodies, or with the primary or secondary antibody omitted. The mean levels of specific AAH, GAPDH, and β-actin immunoreactivity were used for inter-group statistical comparisons.

[2] = test system: Long Evans rats; test: Liver histology in the chronic ethanol exposure model; conditions: for extents of micro- and macrosteatosis / liver histology (hepatic architecture): ethanol-fed rats; for liver histology (hepatic architecture): relative to vehicle
Excerpt: as §1

[3] = test system: insulin, IGF-I, IGF-II, their receptors, IRS-1, IRS-2, IRS-4 mRNA in liver; test: qRT-PCR of hepatic insulin and IGF polypeptides, their receptors, and IRS molecules; conditions: relative to vehicle; for IGF-II mRNA: chronic ethanol feeding; for IGF-I mRNA: control rats
Excerpt: as §1
Total RNA was extracted from liver tissue using TRIzol® reagent (Invitrogen, Carlsbad, Calif.) according to the manufacturer's protocol. RNA concentrations and purity were determined from the absorbances measured at 260 nm and 280 nm. RNA (2 μg) was reverse transcribed using the AMV First Strand cDNA synthesis kit (Roche Diagnostics Corporation, Indianapolis, Ind.) and random oligodeoxynucleotide primers. Quantitative reverse transcriptase polymerase chain reaction (qRT-PCR) assays were used to measure steady-state levels of specific mRNA transcripts. PCR amplifications were performed in 20 μl reactions containing cDNA generated from 2.5 ng of original RNA template, 300 nM each of gene specific forward and reverse primer (Table 2), and 10 μl of 2× QuantiTect SYBR Green PCR Mix (Qiagen Inc, Valencia, Calif.). The amplified signals were detected continuously with the Mastercycler ep realplex instrument and software (Eppendorf AG, Hamburg, Germany). The amplification protocol used was as follows: initial 15-minutes denaturation and enzyme activation at 95° C., 45 cycles of 95° C.×15 sec, 55°-60° C.×30 sec, and 72° C.×30 sec. Annealing temperatures were optimized using the temperature gradient program provided with the Mastercycler ep realplex software.
Complementary (c) DNAs were cloned into PCR-II vectors (Invitrogen, Carlsbad, Calif.). […] Serial dilutions of recombinant plasmid DNA containing target sequences were used as standards in PCR reactions, and regression lines generated from the Ct values of the standards were used to calculate mRNA abundance. Relative mRNA expression was expressed as the ng ratio of specific mRNA to ribosomal (r) 18S measured in the same samples because 18S is highly abundant and the levels are not modulated with disease state. Statistical comparisons were made using the calculated mRNA/18S ratios.

[4] = test system: Long-Evans male rats fed a 37% ethanol liquid diet; test: Lipid peroxidation in liver by HNE immunostaining; conditions: chronic ethanol fed rats
Procedure: (§2) An isocaloric (sucrose substituted for ethanol) diet was administered to pair fed control animals. After three weeks, both groups of rats were injected with either PPAR-α, γ, or δ agonists or saline as a control. […] The […] were given IP injections twice a week. At 6 weeks, the animals underwent 2/3 partial hepatectomy. The removed liver was used for histology, measurement of lipid peroxidation, DNA damage and insulin/IGF signaling as described below. Following ⅔ hepatectomy, the liver remnants were harvested 18, 24, 30 and 48 hours later to assess the regenerative response. To do this, animals were injected IP with BrdU 2 hours before harvest to measure its incorporation into hepatic nuclei as an index of DNA synthesis.
(§3) Paraffin sections (8 μm thick) were immunostained with monoclonal antibodies to 8-hydroxy-deoxyguanosine (8-OHdG) (Oxis Research) or 4-hydroxynonenol (HNE) (Chemicon International, Temecula, Calif.), to detect DNA damage and lipid peroxidation, respectively. Prior to immunostaining, the deparaffinized, re-hydrated sections were treated with 0.1 mg/ml saponin in phosphate buffered saline (10 mM sodium phosphate, 0.9% NaCl, pH 7.4; PBS) for 20 minutes at room temperature, followed by 3% hydrogen peroxide in methanol for 10 minutes to quench endogenous peroxidase activity, and then a 30-minute incubation in SuperBlock-TBS (Pierce Chemical Co., Rockford, Ill.) to block non-specific binding sites. The tissue sections were then incubated overnight at 4° C. with 0.5-1 μg/ml of primary antibody. […] The tissue sections were counterstained with hematoxylin, preserved under coverglass, and examined by light microscopy.

[5] = test system: Long-Evans male rats fed a 37% ethanol liquid diet; test: DNA damage in liver by 8-OHdG immunostaining; conditions: chronic ethanol fed rats
Procedure: as §2, §3

Row | Structure (SMILES) | AAH expression (ELISA) ([1]; control livers) | GAPDH expression (ELISA) ([1]; ethanol-exposed livers) | extents of micro- and macrosteatosis [2] | liver histology (hepatic architecture) [2] | IGF-II mRNA [3] | IRS-2 mRNA ([3]; control group) | insulin gene expression ([3]; control group) | IGF-I mRNA [3] | insulin receptor mRNA ([3]; controls) | IRS-4 mRNA ([3]; ethanol-exposed group) | insulin gene expression ([3]; ethanol-exposed group) | insulin receptor mRNA ([3]; ethanol-fed rat livers) | IRS-1 mRNA ([3]; ethanol-fed rats) | hepatic lipid peroxidation (HNE immunostaining) [4] | DNA damage (8-OHdG immunoreactivity) [5] | GAPDH expression (ELISA) ([1]; control livers) | AAH expression (ELISA) ([1]; ethanol-exposed livers) | liver histology ([2]; control rats, relative to vehicle-treated controls) | IRS-2 mRNA ([3]; ethanol-exposed rats)
1 | CCCc1c(OCCCOc2ccc(OCC(=O)O)cc2)ccc(C(C)=O)c1O [PPAR-δ, L-165,041] | slightly reduced | significantly increased | overtly reduced | reduced the disordered architecture; also recorded: most striking improvements in liver histology; also recorded: strikingly reduced the ethanol-associated architectural disarray and steatosis; also recorded: more effective than the PPAR-α agonist in restoring hepatic architecture | significantly reduced | significantly increased | significantly increased | significantly increased | increased | significantly reduced | reduced | significantly reduced | significantly reduced | substantially improved | most prominent protective effect; also recorded: superior to the α and γ agents in preventing hepatocyte damage | – | – | – | –
2 | CC(C)(Sc1ccc(CCN(CCCCC2CCCCC2)C(=O)NC2CCCCC2)cc1)C(=O)O [PPAR-α, GW7647] | no significant effect | no significant effect | overtly reduced | reduced the disordered architecture; also recorded: strikingly reduced the ethanol-associated architectural disarray and steatosis | – | – | – | – | – | – | reduced | – | – | substantially improved | protective effect | no significant effect | no significant effect | no detectable histological changes in liver; also recorded: no detectable effects on liver histology | –
3 | CC(C)C[C@H](NC(=O)OCC1c2ccccc2-c2ccccc21)C(=O)O [PPAR-γ, F-L-Leu] | slightly reduced | significantly increased | overtly reduced | reduced the disordered architecture; also recorded: most striking improvements in liver histology; also recorded: strikingly reduced the ethanol-associated architectural disarray and steatosis; also recorded: more effective than the PPAR-α agonist in restoring hepatic architecture | significantly reduced | – | significantly increased | significantly increased | – | – | – | – | – | substantially improved | protective effect | – | – | – | significantly reduced
